For experiment [1], the system named is HXB2-strain of HIV in MT4 cells. Description: Antiviral assay: protection of HIV-infected MT4 cells from cell death (MTT). In kind it is cell-based. The note with it: Human immunodeficiency virus 1; MT4 cells infected with HXB2-strain of HIV, MTT viability. Here is the method: Anti-HIV antiviral activity was assessed using an adaptation of the method of Pauwels et al. {Pauwels et al., 1988, J Virol Methods 20:309-321}. The method is based on the ability of compounds to protect HIV-infected T lymphoblastoid cells (MT4 cells) from cell-death mediated by the infection. The endpoint of the assay was calculated as the concentration of compound at which the cell viability of the culture was preserved by 50% (‘50% inhibitory concentration’, IC50). The cell viability of a culture was determined by the uptake of soluble, yellow 3-[4,5-dimethylthiazol-2-yl]-2,5-diphenyltetrazolium bromide (MTT) and its reduction to a purple insoluble formazan salt. After solubilization, spectrophotometric methods were employed to measure the amount of formazan product.
MT4 cells were prepared to be in logarithmic-phase growth and a total of 2×10^6 cells infected with the HXB2-strain of HIV at a multiplicity of 0.0001 infectious units of virus per cell in a total volume of between 200-500 microlitres. The cells were incubated with virus for one h at 37° C. before removal of virus. The cells are then washed in 0.01 M phosphate buffered saline, pH 7.2 before being resuspensed in culture medium for incubation in culture with serial dilutions of test compound. The culture medium used was RPMI 1640 without phenol red, supplemented with penicillin, streptomycin, L-glutamine and 10% fetal calf serum (GM10).
Test compounds were prepared as 2 mM solutions in dimethyl sulphoxide (DMSO). Four replicate, serial 2-fold dilutions in GM10 were then prepared and 50 microlitres amounts placed in 96-well plates over a final nanomolar concentration range of 625-1.22. Fifty microlitres GM10 and 3.5×10^4 infected cells were then added to each well. Control cultures containing no cells (blank), uninfected cells (100% viability; 4 replicates) and infected cells without compound (total virus-mediated cell death; 4 replicates) were also prepared. The cultures were then incubated at 37° C. in a humidified atmosphere of 5% CO2 in air for […].
A fresh solution of 5 mg/ml MTT was prepared in 0.01 M phosphate buffered saline, pH 7.2 and 20 microlitres added to each culture. The cultures were further incubated as before for 2 h. They were then mixed by pipetting up and down and 170 microlitres of Triton X-100 in acidified isopropanol (10% v/v Triton X-100 in 1:250 mixture of concentrated HCl in isopropanol). When the formazan deposit was fully solubilized by further mixing, the absorbance (OD) of the cultures was measured at 540 nm and 690 nm wavelength (690 nm readings were used as blanks for artefacts between wells). The percent protection for each treated culture was then calculated from the equation: [formula]
The IC50 was then obtained from graph plots of percent protection versus log10 drug concentration.

Experiment [2] concerns the target HIV-1 RT (Human immunodeficiency virus type 1 group M subtype B, UniProt P04585). Description: HIV-1 Reverse Transcriptase Assay: Inhibitor IC50 Determination. The format is biochemical. The note with it: purified recombinant enzyme, poly(rA)/oligo(dT)16 template-primer. Here is the method:
Assay Method: HIV-1 Reverse Transcriptase Assay: Inhibitor IC50 Determination
HIV-1 RT assay was carried out in 96-well Millipore filtermat NOB50 plates using purified recombinant enzyme and a poly(rA)/oligo(dT)16 template-primer in a total volume of 50 μL. The assay constituents were 50 mM Tris/HCl, 50 mM NaCl, 1 mM EDTA, 6 mM MgCl2, 5 μM dTTP, 0.1 μCi [^3H] dTTP, 5 μg/ml poly (rA) pre annealed to 2.5 μg/ml oligo (dT)16 and a range of inhibitor concentrations in a final concentration of 10% DMSO. Reactions were initiated by adding 5 nM HIV-1 RT and after incubation at 37° C. for 30 min, they were stopped by the addition of 50 μl ice cold 20% TCA and allowed to precipitate at 4° C. for 30 min. The precipitates were collected by applying vacuum to the plate and sequentially washing with 2×200 μl of 10% TCA and 2×200 μl 70% ethanol. Finally the plates were dried and radioactivity counted in a Wallac Microbeta 1450 after the addition of 15 μl scintillation fluid per well. IC50's were calculated by plotting % inhibition versus log10 inhibitor concentrations.

The record followed here is patent US6518293B2, “Anti-HIV imidazolone derivatives” (Hoffmann-La Roche Inc., priority 2000, dated 2003).

For `CC(C)n1c(Sc2cc(Cl)cc(Cl)c2)c(CNCc2ccncc2)n(C)c1=O`, the IC50 in experiment [1] was determined as 7 nM; in experiment [2], 90 nM.
The corresponding values for `CC(C)n1c(Sc2cc(Cl)cc(Cl)c2)c(COCc2ccncc2)n(C)c1=O` are 4 nM and 171 nM.
The corresponding values for `CC(C)n1c(Sc2ccccc2)c(CNCc2ccncc2)n(C)c1=O` are 32 nM and 520 nM.
The corresponding values for `CC(C)n1c(Sc2ccccc2)c(CNCc2ccccc2)n(C)c1=O` are 44 nM and 730 nM.
For the compound `CC(C)n1c(Oc2cc(Cl)cc(Cl)c2)c(CNCc2ccncc2)n(C)c1=O`, the results for the IC50 in experiment [1] and in experiment [2] were 108 nM and 2400 nM, respectively.
`CC(C)n1c(Sc2cc(Cl)cc(Cl)c2)c(CCc2ccccc2)n(C)c1=O`: in experiment [2], the IC50 was determined as 1160 nM.
The same measure, in the same setting: for `CCC(C)Sc1c(CNCc2ccncc2)n(C)c(=O)n1C(C)C` (centres unmarked) the value was 1910 nM; for `COc1cccc(Sc2c(CNCc3ccncc3)n(C)c(=O)n2C(C)C)c1`, 3340 nM.
As for `CC(C)n1c(Sc2cc(Cl)cc(Cl)c2)c(CO)n(C)c1=O`, the IC50 in experiment [2] came to 10000 nM.
The same measure, in the same setting: next, `Cn1c(COCc2ccccc2)c(Sc2cc(Cl)cc(Cl)c2)n(-c2ccccc2)c1=O`: 10000 nM.
With `CC(C)n1c(Sc2cc(Cl)cc(Cl)c2)c(/C=C/C#N)n(C)c1=O`, in experiment [2], the IC50 was found to be 1920 nM.
Still for that read-out and setting: next, `CCn1c(Cc2ccncc2)c(Sc2cc(Cl)cc(Cl)c2)n(C(C)C)c1=O`: 649 nM.
As for `CC(C)n1c(Sc2cc(Cl)cc(Cl)c2)c(Cc2ccncc2)n(C)c1=O`, the results for the IC50 in experiment [1] and in experiment [2] were 7 nM and 313 nM, respectively.
The corresponding values for `CC(C)n1c(Sc2cc(Cl)cc(Cl)c2)c(COc2ccncc2)n(C)c1=O` are 134 nM and 608 nM.
For `CC(C)n1c(Sc2cc(Cl)cc(Cl)c2)c(COCc2cccnc2)n(C)c1=O`, the IC50 is 5 nM in experiment [1] and 115 nM in experiment [2].
